Columns and labels:
Assay in all cases: product identification by GC-QToF
Assay type in all cases: biochemical
[1] = molecular target: T1, RrNerS (AHY47823.1), linalool/nerolidol synthase (Rubrobacter radiotolerans, UniProt A0A023X648); conditions: 5 mM MgCl2, 25 mM Tris-HCl pH 7.8, 28 C overnight
T1 construct: gene RradSPS_2540; codon-optimised, pETM11, N-terminal His-tag (TEV cleavable), E. coli, Ni-NTA purified
T1 sequence (A0A023X648 1-315): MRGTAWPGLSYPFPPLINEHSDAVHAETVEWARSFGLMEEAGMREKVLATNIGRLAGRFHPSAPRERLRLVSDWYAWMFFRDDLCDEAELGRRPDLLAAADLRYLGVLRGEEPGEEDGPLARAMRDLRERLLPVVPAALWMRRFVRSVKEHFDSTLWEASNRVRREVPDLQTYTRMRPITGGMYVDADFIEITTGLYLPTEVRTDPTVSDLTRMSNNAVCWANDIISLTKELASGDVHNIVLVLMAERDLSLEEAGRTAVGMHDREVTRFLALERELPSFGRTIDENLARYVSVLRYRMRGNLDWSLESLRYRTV

[2] = molecular target: T2, RrBerS (AHY45426.1) (Rubrobacter radiotolerans, UniProt A0A023WZP4); conditions: 5 mM MgCl2, 25 mM Tris-HCl pH 7.8, 28 C overnight
T2 construct: gene RradSPS_0143; codon-optimised, pETM11, N-terminal His-tag (TEV cleavable), E. coli, Ni-NTA purified
T2 sequence (A0A023WZP4 1-348): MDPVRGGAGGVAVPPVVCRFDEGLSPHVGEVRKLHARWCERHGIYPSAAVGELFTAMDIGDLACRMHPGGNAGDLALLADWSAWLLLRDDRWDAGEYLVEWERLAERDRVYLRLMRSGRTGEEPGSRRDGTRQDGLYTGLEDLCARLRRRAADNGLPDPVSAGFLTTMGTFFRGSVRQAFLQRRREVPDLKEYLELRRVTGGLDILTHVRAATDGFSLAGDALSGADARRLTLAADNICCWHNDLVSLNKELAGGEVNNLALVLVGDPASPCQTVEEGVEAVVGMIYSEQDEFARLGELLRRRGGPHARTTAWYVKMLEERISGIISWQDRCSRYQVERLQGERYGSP

[3] = molecular target: T3, ScEpiS (CAN96536.1), 10-epi-cubebol synthase (Sorangium cellulosum, UniProt A9GK58); conditions: 5 mM MgCl2, 25 mM Tris-HCl pH 7.8, 28 C overnight
T3 construct: gene sce6369; codon-optimised, pETM11, N-terminal His-tag (TEV cleavable), E. coli, Ni-NTA purified
T3 sequence (A9GK58 1-315): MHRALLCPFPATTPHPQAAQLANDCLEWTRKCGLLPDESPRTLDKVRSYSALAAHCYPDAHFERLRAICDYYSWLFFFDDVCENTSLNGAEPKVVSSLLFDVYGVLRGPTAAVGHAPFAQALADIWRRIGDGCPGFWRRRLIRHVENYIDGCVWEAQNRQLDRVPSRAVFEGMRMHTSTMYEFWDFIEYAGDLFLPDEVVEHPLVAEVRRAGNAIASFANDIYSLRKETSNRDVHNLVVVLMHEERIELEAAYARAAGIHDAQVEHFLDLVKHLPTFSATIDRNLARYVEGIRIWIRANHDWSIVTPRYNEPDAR

[4] = molecular target: T4, MiGerS (ADU09376.1), germacatriene synthase (Micromonospora aurantiaca (nom. illeg.), UniProt A0ABQ6UH67); conditions: 75 uM FPP, 5 mM MgCl2, 25 mM Tris-HCl pH 7.8, 28 C overnight; products germacrene A (seen as beta-elemene) and 1(10),4,11-germacratriene
T4 construct: gene F6X54_13130; codon-optimised, pETM11, N-terminal His-tag (TEV cleavable), E. coli, Ni-NTA purified

[5] = molecular target: T5, ScGeoS, geosmin synthase (CAB41566.1) (Streptomyces coelicolor, UniProt Q9X839); conditions: 75 uM FPP, 5 mM MgCl2, 25 mM Tris-HCl pH 7.8, 28 C overnight; products geosmin, germacradienol, germacrene D; positive control
T5 construct: gene cyc2; bi-domain enzyme, recombinant, purified; pETM11 N-terminal His-tag

[6] = molecular target: T6, KaGerS (AHH94051.1) (Kutzneria viridogrisea, UniProt W5W0G4); conditions: 75 uM FPP, 5 mM MgCl2, 25 mM Tris-HCl pH 7.8, 28 C overnight; products germacradienol and germacrene D
T6 construct: gene KALB_676; codon-optimised, pETM11, N-terminal His-tag (TEV cleavable), E. coli, Ni-NTA purified
Source text: product identification by GC-QToF on KaGerS (AHH94051.1) | we tested its functionality with FPP in in vitro conditions. This yielded germacradienol and germacrene D

[7] = molecular target: T7, ScAroS (KYF56472.1), aromandendrene synthase (Sorangium cellulosum, UniProt Z9C2K8JLD0); conditions: 75 uM FPP, 5 mM MgCl2, 25 mM Tris-HCl pH 7.8, 28 C overnight; product aromadendrene
T7 construct: codon-optimised, pETM11, N-terminal His-tag (TEV cleavable), E. coli, Ni-NTA purified
T7 sequence (Z9C2K8JLD0 1-329): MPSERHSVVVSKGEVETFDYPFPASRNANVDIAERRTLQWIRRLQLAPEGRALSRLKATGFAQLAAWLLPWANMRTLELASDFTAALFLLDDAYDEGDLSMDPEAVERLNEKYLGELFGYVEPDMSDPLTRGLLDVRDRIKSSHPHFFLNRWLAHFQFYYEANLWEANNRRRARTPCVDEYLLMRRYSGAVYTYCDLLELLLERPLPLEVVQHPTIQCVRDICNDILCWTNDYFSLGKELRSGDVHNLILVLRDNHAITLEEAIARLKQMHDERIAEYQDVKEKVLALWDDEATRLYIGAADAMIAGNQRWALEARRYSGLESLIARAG

T4 sequence (A0ABQ6UH67 entry or part of it): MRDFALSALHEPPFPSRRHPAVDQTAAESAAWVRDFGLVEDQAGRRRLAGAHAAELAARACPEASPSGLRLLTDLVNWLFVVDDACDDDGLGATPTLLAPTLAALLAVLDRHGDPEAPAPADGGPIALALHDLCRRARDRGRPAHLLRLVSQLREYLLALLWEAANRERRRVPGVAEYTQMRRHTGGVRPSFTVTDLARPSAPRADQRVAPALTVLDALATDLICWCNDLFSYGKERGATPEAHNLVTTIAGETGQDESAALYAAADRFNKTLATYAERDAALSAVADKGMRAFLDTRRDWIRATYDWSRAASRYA
T5 sequence (Q9X839 whole entry): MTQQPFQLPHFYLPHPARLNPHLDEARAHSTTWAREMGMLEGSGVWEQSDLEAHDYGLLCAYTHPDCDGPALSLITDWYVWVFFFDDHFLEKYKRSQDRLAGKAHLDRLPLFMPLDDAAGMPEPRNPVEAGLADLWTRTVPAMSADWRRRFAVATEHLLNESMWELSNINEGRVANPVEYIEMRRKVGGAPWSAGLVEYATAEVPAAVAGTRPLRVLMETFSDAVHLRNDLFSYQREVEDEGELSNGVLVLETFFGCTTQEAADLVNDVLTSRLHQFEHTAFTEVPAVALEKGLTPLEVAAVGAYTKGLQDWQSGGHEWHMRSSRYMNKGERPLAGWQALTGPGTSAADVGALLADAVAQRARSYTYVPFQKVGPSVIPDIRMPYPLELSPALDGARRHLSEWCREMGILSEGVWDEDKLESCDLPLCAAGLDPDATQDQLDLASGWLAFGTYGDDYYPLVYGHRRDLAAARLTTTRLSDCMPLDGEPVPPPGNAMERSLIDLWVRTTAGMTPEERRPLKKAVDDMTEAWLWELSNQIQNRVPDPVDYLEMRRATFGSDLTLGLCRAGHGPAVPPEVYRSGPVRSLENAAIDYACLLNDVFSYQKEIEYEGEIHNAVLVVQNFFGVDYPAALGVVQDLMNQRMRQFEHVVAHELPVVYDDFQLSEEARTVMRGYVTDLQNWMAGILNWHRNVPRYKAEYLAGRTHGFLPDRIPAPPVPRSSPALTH
T6 sequence (W5W0G4 1-363): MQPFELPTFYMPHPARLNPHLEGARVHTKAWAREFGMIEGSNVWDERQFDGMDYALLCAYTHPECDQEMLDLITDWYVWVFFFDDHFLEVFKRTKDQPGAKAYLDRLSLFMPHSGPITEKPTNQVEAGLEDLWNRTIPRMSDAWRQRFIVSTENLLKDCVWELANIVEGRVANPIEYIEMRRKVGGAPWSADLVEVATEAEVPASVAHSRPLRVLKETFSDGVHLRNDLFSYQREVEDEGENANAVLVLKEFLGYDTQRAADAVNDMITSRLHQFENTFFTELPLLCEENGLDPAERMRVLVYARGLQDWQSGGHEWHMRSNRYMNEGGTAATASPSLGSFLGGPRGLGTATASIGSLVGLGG

| SMILES | product identification by GC-QToF ([1]; 100 uM GPP, products R- and S-linalool) | product identification by GC-QToF ([2]; 100 uM GPP, product linalool) | product identification by GC-QToF ([3]; 100 uM GPP, products cis/trans-beta-ocimene and linalool) | product identification by GC-QToF [4] | product identification by GC-QToF ([1]; 75 uM FPP, product trans-nerolidol) | product identification by GC-QToF [5] | product identification by GC-QToF [6] | product identification by GC-QToF [7] | product identification by GC-QToF ([2]; 75 uM FPP, product alpha-bergamotene) | product identification by GC-QToF ([3]; 75 uM FPP, products 10-epi-cubebol and others) |
| --- | --- | --- | --- | --- | --- | --- | --- | --- | --- | --- |
| CC(C)=CCC/C(C)=C/COP(=O)(O)OP(=O)(O)O [GPP] | Incubation with GPP yielded both R- and S- linalool isomers | also showed activity with both FPP and GPP, yielding α-bergamotene | with GPP yielded the monoterpene products cis- and trans-β-ocimene | – | – | – | – | – | – | – |
| CC(C)=CCC/C(C)=C/CC/C(C)=C/COP(=O)(O)OP(=O)(O)O [FPP] | – | – | – | incubated with FPP yielded β-elemene, and 8-isopropenyl-1,5-dimethyl-1,5-cyclodecadiene | with FPP yielded a single product that was identified as trans-nerolidol by GC–QToF analysis | purified geosmin synthase yielded the sesquiterpenoids geosmin, germacradienol and germacrene D | we tested its functionality with FPP in in vitro conditions. This yielded germacradienol and germacrene D | converted FPP into only aromadendrene in in vitro analysis | also showed activity with both FPP and GPP, yielding α-bergamotene | When ScEpiS was incubated with FPP the products obtained were 10-epi-α-cubinene |

From PMC7192455, “Exploring novel bacterial terpene synthases” (PLoS ONE, 2020)
